# Data: patent publication US7244756B2, “Benzimidazol-2-one derivatives and their use” (Poseidon Pharmaceuticals A/S, priority 2002, dated 2007)
# Like-named read-outs stand apart in the source and are kept apart here.
# Assays:
# [1] = Stability in solution (water, 0.1M HCl, 0.1M NaOH, 60° C., HPLC); assay type: physicochemical
# Procedure: (§1) In this example the stability of Compound 1 of the invention are compared to those of a close analogue of the prior art, i.e. 1,3-dihydro-1-[2-hydroxy-5-(trifluoromethyl)phenyl]-5-(trifluoromethyl)-2H-Benzimidazol-2-one (i.e. NS1619 described in WO 01/54771) herein designated the Reference Compound.
# The stability is determined in neutral (H2O), in basic (0.1M NaOH) and in acidic solution (0.1M HCl).
# 50 ml of water was added to 27 mg of the reference compound. The compound was only partly dissolved. The suspension was stored at 60° C. and after 24 hours 25 ml of methanol was added in order to completely dissolve reference compound. The solution was stored for further 4 hours and then analysed by HPLC (t=28 hours).
# 50 ml of 0.1M hydrochloric acid was added to 27 mg of the reference compound. The compound was only partly dissolved. The suspension was stored at 60° C. and after 48 hours 25 ml of methanol was added in order to completely dissolve he reference compound. The solution was stored for further 4. hours and then arialysed by HPLC (t=52 hours).
# 50 ml of 0.1M sodium hydroxide was added to 24 mg of the reference compound. The compound was completely dissolved. The solution was stored at 60° C. and analysed by HPLC after 2 hours (t=2 hours).
# (§2) 50 ml of water was added to 25 mg of Compound 1. The compound was only partly dissolved. The suspension was stored at 60° C., and after 48 hours, 25 ml of acetonitrile was added in order to completely dissolve Compound 1. The solution was stored for further 24 hours and then analysed by HPLC (t=72 hours).
# as §2, with “of 0.1M hydrochloric acid” for “of water”, “to 27” for “to 25”, “was only-partly” for “was only partly”
# 50 ml of 0.1M sodium hydroxide was added to 26 mg of Compound 1. The compound was completely dissolved. The solution was stored at 60° C. and analysed by HPLC after 72 hours (t=72 hours).
# [2] = Pharmacokinetic parameters in rats (i.v. and p.o. dosing, plasma LC-MS/MS); assay type: in vivo, male Wistar rats; conditions: rat; for half-life / Cmax / Tmax / bioavailability / Vd: male, Wistar, plasma
# Procedure: as §1, with “pharmacokinetic parameters” for “stability”, “described” for “described in”, “01/54711)” for “01/54771)”
# The blood samples were centrifuged at 1.300 g at 4° C. for 25 minutes and the resulting plasma samples were stored at <−15° C. pending analysis.
# The compounds were dosed as clear solutions in phosphate buffer/Tween 80 (90:10) in a concentration of 3 mg/ml.
# Aliquots of samples, calibrants and QC's (100 μl) were pipetted into 1.5 ml eppendorf tubes. To each tube (except matrix blank) was added 300 μl acetonitrile with internal standards. Matrix blank was added 300 μl acetonitrile without internal standard.
# The tubes were shaken on a whirlimixer and then centrifuged for 25 minutes at 16.000 g at 5° C. to precipitate proteins.
# An aliquot (200 μl) of the supernatant was transferred to another 1.5 ml eppendorf tube and evaporated to dryness under a gentle stream of nitrogen at 40° C. Then the samples were reconstituted in […] (initial composition).
# Incorporating the data from the rat plasma analyses, the pharmacokinetic parameters were calculated using WinNonLin Professional Edition version 2.0.
# [3] = biological target: T1, large conductance calcium-activated potassium (BKCa) channels (Cavia porcellus, UniProt A0A286XP95); conditions: guinea pig airways, via activation of BKCa channels; cited from earlier work
# T1 construct: sensory fibers innervating the guinea pig airways; host or cells: guinea pig airway sensory nerve fibers (native tissue)
# T1 sequence (A0A286XP95 1-1133): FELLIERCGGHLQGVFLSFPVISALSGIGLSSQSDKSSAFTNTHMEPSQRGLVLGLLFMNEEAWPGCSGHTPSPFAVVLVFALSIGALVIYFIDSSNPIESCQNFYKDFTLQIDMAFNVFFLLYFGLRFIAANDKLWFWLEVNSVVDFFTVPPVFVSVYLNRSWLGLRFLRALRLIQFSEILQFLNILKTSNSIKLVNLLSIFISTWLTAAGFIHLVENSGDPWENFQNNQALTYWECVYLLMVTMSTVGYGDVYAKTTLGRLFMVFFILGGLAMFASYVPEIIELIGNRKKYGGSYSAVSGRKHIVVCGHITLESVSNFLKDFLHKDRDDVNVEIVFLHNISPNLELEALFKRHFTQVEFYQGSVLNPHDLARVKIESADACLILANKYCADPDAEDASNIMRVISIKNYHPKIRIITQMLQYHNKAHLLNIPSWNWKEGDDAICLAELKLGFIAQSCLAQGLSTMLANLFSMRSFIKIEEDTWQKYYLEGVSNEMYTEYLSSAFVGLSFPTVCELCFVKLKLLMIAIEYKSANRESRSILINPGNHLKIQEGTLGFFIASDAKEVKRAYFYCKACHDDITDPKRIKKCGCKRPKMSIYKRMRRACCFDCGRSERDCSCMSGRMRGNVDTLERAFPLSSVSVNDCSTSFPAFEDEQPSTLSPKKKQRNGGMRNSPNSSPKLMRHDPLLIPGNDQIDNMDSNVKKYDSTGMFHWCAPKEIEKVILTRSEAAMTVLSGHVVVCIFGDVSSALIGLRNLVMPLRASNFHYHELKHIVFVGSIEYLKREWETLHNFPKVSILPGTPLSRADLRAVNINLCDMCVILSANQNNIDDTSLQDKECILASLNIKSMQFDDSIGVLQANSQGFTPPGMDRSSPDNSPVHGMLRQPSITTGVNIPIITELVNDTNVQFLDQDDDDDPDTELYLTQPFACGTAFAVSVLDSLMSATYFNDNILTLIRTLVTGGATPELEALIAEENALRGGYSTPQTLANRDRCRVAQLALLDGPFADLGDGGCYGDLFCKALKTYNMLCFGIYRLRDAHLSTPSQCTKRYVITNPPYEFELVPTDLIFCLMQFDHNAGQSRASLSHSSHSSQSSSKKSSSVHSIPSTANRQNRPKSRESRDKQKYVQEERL
# [4] = iv, i.v. 3 mg/kg, time-points 5 min–5 h, read-out: T1/2 (i.v.) (converted)
# [5] = po, p.o. 30 mg/kg, i.v. 3 mg/kg
# [6] = po, p.o. 30 mg/kg, time-points 3–24 h (Ref. Cpd.), 2–24 h (Cpd. 1), read-out: T1/2 (p.o.) (converted)
"Area% (UV 225 nm) of the Test Substance ([1]; HCl (0.1M), 60° C., Initial)","Area% (UV 225 nm) of the Test Substance ([1]; NaOH (0.1M), 60° C., Initial)","Area% (UV 225 nm) of the Test Substance ([1]; Water, 60° C., Initial)","half-life [2, 4]","Cmax ([2]; po, p.o. 30 mg/kg)","Tmax ([2]; po, p.o. 30 mg/kg)","bioavailability [2, 5]","half-life [2, 6]",Vd [2],Time after which Cmax after p.o. administration is reached ([2]; p.o.),Compound,further results
98.4%,98.4%,98.4%,102 min,10000 ng/mL,3 h,145%,150 min,1.1 L/kg,3 h,"O=c1[nH]c2cc(C(F)(F)F)ccc2n1-c1cc(C(F)(F)F)ccc1O [Reference Compound, 1,3-dihydro-1-[2-hydroxy-5-(trifluoromethyl)phenyl]-5-(trifluoromethyl)-2H-Benzimidazol-2-one]","Area% (UV 225 nm) of the Test Substance ([1]; HCl (0.1M), 60° C., t = 52 hours): 98.4%; Area% (UV 225 nm) of the Test Substance ([1]; NaOH (0.1M), 60° C., t = 2 hours): 0.0%; Area% (UV 225 nm) of the Test Substance ([1]; Water, 60° C., t = 28 hours): 96.7%; Stability in 0.1 M NaOH (in words) ([1]; dissolved in 0.1 M NaOH): degrades instantly; Stability in solution (in words) ([1]; neutral, acidic and basic solution, 60° C.): unstable in neutral to basic solutions; Effect on activity of myelinated and non-myelinated airway sensory fibers [3]: inhibits the activity"
99.7%,99.7%,99.7%,48 min,4200 ng/mL,0.5 h,97%,192 min,1.9 L/kg,0.5 h,"O=c1[nH]c2cc(Cl)ccc2n1-c1cc(Cl)ccc1O [Compound 1, 5-Chloro-1-(5-chloro-2-hydroxy-phenyl)-1,3-dihydro-benzimidazole-2-one]","Area% (UV 225 nm) of the Test Substance ([1]; HCl (0.1M), 60° C., t = 72 hours): 99.6%; Area% (UV 225 nm) of the Test Substance ([1]; NaOH (0.1M), 60° C., t = 72 hours): 99.4%; Area% (UV 225 nm) of the Test Substance ([1]; Water, 60° C., t = 72 hours): 99.6%; Absorption compared to the reference compound ([2]; p.o.): faster absorption; Half-life after p.o. administration compared to the reference compound ([2]; p.o.): slightly longer"
